PMC9655874, “Analysis of Volatile Secondary Metabolites in Ocimum basilicum Cell Suspensions: Inhibition, In Silico Molecular Docking, and an ADMET Analysis against Proteolytic Enzymes of Rhynchophorus ferrugineus” (Plants, 2022)
≈ marks a conversion by molar mass, not a printed value.

How the values were obtained:
[1] = system: metalloprotease of R. ferrugineus midgut; assay: Metalloprotease activity in midgut of treated larvae (in vivo); conditions: larvae treated 24 h, midgut preparation
Protocol: (§4) The ten midgut larvae from the fourth stage were neatly eliminated, dissected, and repeatedly washed with 0.9% NaCl solution. A 500 µL protease test solution, including 50 mM HEPS, 0.1% Triton X-100, and 5 mM DTT (pH 8.0), was utilized to homogenize the midgut instar. The homogenates were then centrifuged employing a Sigma 3k30 (cooling centrifuge) at 5000 rpm for 30 min to evaluate the supernatant’s enzyme activity and protein content. Before introducing CEGR (125 µL, 2% (w/v)), each experiment’s supernatant (10 µL) was incubated in an assay buffer (60 µL) at 37 °C for 20 min (pH 8). During a 10 min incubation period without a substrate, 10 µL enzyme samples were tested (20 min. for EDTA, EGTA, 1.10, Phenanthroline). After 180 min at 37 °C, 300 µL of cold TCA, 10% (v/v), was used to terminate the reaction. For the next 20 min, the mixture was spun (5000 rpm, Sigma 3K30). The absorbance was measured at 450 nm after mixing the supernatant with hydroxide solution (10 µL, 10 N) using an ELISA reader. An enzyme-free assay combination was utilized as a blank, and particular activity was evaluated utilizing the OD493 mg^−1 protein min^−1 and an enzyme-free blank specimen.
(§5) An experiment that was set up free of potential inhibitors served as a control. An ELISA plate fast reader measured the enzymes’ absorption at various wavelengths. For each inhibitor, the control enzyme’s percentage activity was assessed for each enzyme. Four instars midgut larvae were treated with previous concentrations of extracts or compounds, assessed as previously mentioned, to measure the protease activity in vivo. Larvae were subjected to extract- and compound-treated leaf discs for 24 h.

[2] = target: elastase of R. ferrugineus midgut; assay: Serine proteinase specific activity, elastase (in vitro); type: biochemical, Rhynchophorus ferrugineus; conditions: 4th instar midgut homogenate
[3] = system: R. ferrugineus 4th larvae; assay: Topical application (contact insecticide) to fourth instar larvae; type: in vivo, Rhynchophorus ferrugineus; conditions: for LD50 (µg/Larvae) 95% CF: 4th larvae, topical, 95% confidence limits in brackets; for LD50: larvae
Protocol: (§1) Cells were suspended in the methanolic extract at serially increasing concentrations for 40 days. To dilute the compounds, TritonX-100 (0.1%) was added to acetone after the chemicals were dissolved. Adults or larvae of R. ferrugineus were purchased. They were then cultured using long lengths of sugar cane stem. The extracts’ anti-larvae action was assessed by applying topically to larvae and keeping them at 4–5 °C for 5 min. Utilizing a manually controlled micro-applicator, each larva had extract injected into its dorsum in three separate 10 µL doses using a 50-ll micro-syringe from Hertfordshire, UK’s Burkard Manufacturing Co., Ltd. (MS-N50; Shizuoka, Japan’s Ito Corp.). Five larvae in a box with three replications were fed on portions of long sugarcane stem measuring 10 cm. […] The sugarcane stem’s ten-centimeter-long portions cut into equal longitudinal halves were used to measure the antifeedant activity against adults. Long sections of sugarcane stem with a surface area of approximately 32.2 cm^2 were dried in air at room temperature, assuming a dipping time of 10 s and an initial serial concentration of (10 mL). Each treated object remained in a plastic container. Each box included an additional pair (male and female). Each therapy was administered ten times. In total, 24-, 48-, 72-, and 96-h feeding observations were assessed.
(§2) Statistics and probit analysis were performed using SPSS 25.0, as mentioned by Finney. To sum up, all numerical predictions of toxicity variables and findings were presented as the mean ± SE. We regressed mortality and translated the resulting dosage to an LC50 value (µg/mL). […] Enzyme activity data were analyzed using an ANOVA. Means were separated using the SNK (Student–Newman–Keuls) test, and deviations at the p ˂ 0.05 level were considered noteworthy.

[4] = target: metalloprotease of R. ferrugineus midgut; assay: Metalloproteinase specific activity, CEGR substrate (in vitro); conditions: 4th instar midgut homogenate
Protocol: as §4, §5

[5] = system: total proteases of R. ferrugineus midgut; assay: Total protease activity in midgut of treated larvae (in vivo); conditions: larvae treated 24 h, midgut preparation
Protocol: (§6) The homogenate of R. ferrugineus 4th midgut instar larvae (lab strain) was assayed for total proteolytic enzyme activity using azocasein, as Darrag et al. [26], with modifications. Ten 4th midgut larval homogenates were carefully removed, incised, and then rinsed in a solution containing 0.9% NaCl before even being homogenized in a buffer (500 µL) containing 5 mM dithiothreitol (DTT), 0.1% (v/v) Triton X-100, and 50 mM N-2-hydroxyethyl piperazine-N′-2-ethane sulphonic acid (HEPS), and 8.0 pH. It was spun in a centrifuge (Sigma 3k30), and the remaining homogenates were from a preliminary phase for 30 min at 5000 rpm. Using the supernatants, the protein concentration and proteolytic enzyme activity were determined. […] Before each reaction experiment, 40-day-old methanolic extract of cell suspension, pure chemicals, and 10 μL of enzyme specimens were incubated for 10 min. The addition of the substrate initiated the reaction, which was allowed for 20 min in the case of leupeptin before being terminated 180 min later by adding 300 µL of cold tri-chloroacetic acid (TCA) (10%, v/v). Twenty minutes were spent centrifuging the mixture at 5000 rpm (Sigma 3k30). Overall, 10 µL of NaOH (10 N) was added to the supernatant, and the absorbance was measured using an ELISA plate reader at 450 nm to quantify the enzymes’ specific activity as OD450/mg protein/h.
as §5

[6] = system: elastase of R. ferrugineus midgut; assay: Elastase activity in midgut of treated larvae (in vivo); design: species or system Rhynchophorus ferrugineus; conditions: larvae treated 24 h, midgut preparation
[7] = target: total proteases of R. ferrugineus midgut; assay: Total proteolytic enzyme activity of 4th instar midgut homogenate, azocasein (in vitro)
Protocol: as §6, §5

[8] = system: R. ferrugineus adults; assay: whole plant or invertebrate; type: in vivo; conditions: Rhynchophorus ferrugineus, read-out: LC50 (µg/mL) 95% CF
Protocol: as §1, §2

[9] = target: trypsin proteinase of R. ferrugineus midgut; assay: Serine proteinase specific activity, trypsin (in vitro); conditions: 4th instar midgut homogenate
Protocol: (§7) We used a serine protease assay buffer and a modified version of the fast microplate method to analyze the serine proteinase’s specific activity in mixtures (150 µL) [26]. […] The sample (10 µL) was diluted using an assay buffer to 50 µL to determine the presence of trypsin proteinase, chymotrypsin proteinase, and elastase. Assay buffer was used to dilute stock substrates of BAρNA (100 mg/mL DMSO), both SAAPFρNA and SAAPLρNA (100 mg/mL DMF), to 1.0 mg/mL. To halt the reaction after 15 min of incubation at 37 °C, 50 µL of acetic acid (30%, v/v) was added. The intensity of the activity was measured using a 405 nm ELISA plate reader. A denaturation enzyme was used in place of an active enzyme in the experiment mixture. For three substrates (SAAPLρNA, BAρNA, and SAAPFρNA), activity levels of certain proteinases were assessed as OD mg^−1 protein min^−1.
as §5

[10] = system: gut proteases of R. ferrugineus fourth larval instar; assay: Specific protease inhibitors against gut proteases of fourth larval instar (in vitro); type: biochemical, Rhynchophorus ferrugineus; conditions: Figure S2, in vitro
Protocol: As a starting point (blank), an assessment combination not containing enzymes was utilized. TLCK (trypsin proteinase inhibitor), PMSF (general serine proteinase inhibitor), EDTA (EDTA-metalloproteinase inhibitor), iodoacetic acid (an iodoacetic acid-cysteine proteinase inhibitor), TPCK (chymotrypsin-proteinase inhibitor), and Leupeptin (as general proteinase inhibitor) were added to the reactions. Homogenates of larval fourth-gut tissue were prepared using the same methodology described for the enzyme activity test. The inhibitory test was conducted via a microplate assay, as reported previously. A series of inhibitor levels were prepared to determine the greatest inhibition activity. Concentrations of 0.01, 0.05, 0.1, and 1.0 mM leupeptin; 0.005, 0.01, 0.05, 0.1, and 1 mM TLCK and TPCK; 0.1, 1.0, 10, 50, and 100 mM PMSF; and 0.01, 0.05, 0.1, 1, and 2 mM iodoacetic acid, 100 mM; 1,10 phenanthroline, EDTA, and EGTA concentrations of 0.1, 1, 10, 50, and 100 mM.

[11] = system: trypsin proteinase of R. ferrugineus midgut; assay: Trypsin activity in midgut of treated larvae (in vivo); conditions: larvae treated 24 h, midgut preparation
Protocol: as §7, §5

[12] = system: cysteine protease of R. ferrugineus midgut; assay: Cysteine protease activity in midgut of treated larvae (in vivo); design: species or system Rhynchophorus ferrugineus; conditions: larvae treated 24 h, midgut preparation
Protocol: (§3) Utilizing the substrate N-benzoyl-Phe-Val-Arg-p-nitroanilide hydrochloride and certain modifications, the cysteine proteinases of R. ferrugineus homogenate from the fourth midgut instar was tested for activity. Ten larvae of the fourth midgut were carefully taken out, dissected, and periodically washed with 0.9% (w/v) NaCl solution, assay buffer containing 50 mM HEPS, 5 mM DTT, and 0.1% Triton X-100 (v/v) (pH 8.0, 500 µL) was used to homogenize the samples. The homogenates were spun using a cooling Sigma 3k30 centrifuge for 30 min at 5000 rpm. […] Before introducing 100 µL of the substrate, 10 µL of the supernatant was incubated in assay buffer (60 µL, pH = 8) at 37 °C for 30 min. Enzyme samples in 10 µL were incubated for 10 min with iodoacetic acid before the addition of the substrate. […] The absorbance at 520 nm was measured after spinning the reaction for 6 min at 5000 rpm. The activity in the midgut was assayed at OD520.60 min^−1 mg^−1 of protein with an ELISA rapid reader.

[13] = target: cysteine protease of R. ferrugineus midgut; assay: Cysteine proteinase activity (in vitro); type: biochemical, Rhynchophorus ferrugineus; conditions: 4th instar midgut homogenate
Protocol: as §3

SMILES	LD50 (µg/Larvae) 95% CF [3]	LD50 ([3]; topical application) [µg/larva]	IC50 metalloprotease (in vitro) [4] [µg/mL]	IC50 total proteases (in vivo) [5] [µg/mL]	IC50 total proteases (in vitro) [7] [µg/mL]	LC50 [8] [µg/mL]	IC50 trypsin proteinase (in vitro) [9] [µg/mL]	Effect on extracted gut proteases of the fourth larval instar [10]	further results
CC12CCC(CC1)C(C)(C)O2 [1,8-cineole]	13.9 (12.8–14.7) µg/Larvae	13.9	708.2 (≈ 4590 µM)	193.1 (≈ 1250 µM)	91.5 (≈ 593 µM)	1430 (≈ 9240 µM)	271.2 (≈ 1760 µM)		IC50 metalloprotease (in vivo) [1]: 1297.2 µg/mL (≈ 8410 µM); IC50 elastase (in vitro) [2]: 119.4 µg/mL (≈ 774 µM); LD50 [3]: 13.9 µg/larva; IC50 elastase (in vivo) [6]: 256.3 µg/mL (≈ 1660 µM)
c1cnc2c(c1)ccc1cccnc12 [1,10 phenanthroline]								significantly inhibited	
C=C/C(C)=C/CC=C(C)C [(E)-β-ocimene]	31.2 (27.4–32.8) µg/Larvae	31.2	321.7 (≈ 2360 µM)	273.2 (≈ 2010 µM)	207.4 (≈ 1520 µM)	3010 (≈ 22100 µM)	157.2 (≈ 1150 µM)		
O=C(O)CN(CCN(CC(=O)O)CC(=O)O)CC(=O)O [EDTA]								significantly inhibited	
O=C(O)CN(CCOCCOCCN(CC(=O)O)CC(=O)O)CC(=O)O [EGTA]								significantly inhibited	
Cc1ccc(S(=O)(=O)N[C@@H](CCCCN)C(=O)CCl)cc1 [TLCK]								significantly inhibited	
Cc1ccc(S(=O)(=O)N[C@@H](Cc2ccccc2)C(=O)CCl)cc1 [TPCK]								significantly inhibited	
C=CCc1ccc(OC)cc1 [estragole]			627.8 (≈ 4240 µM)	314.8 (≈ 2120 µM)	254.7 (≈ 1720 µM)	3590 (≈ 24200 µM)	257.5 (≈ 1740 µM)		IC50 metalloprotease (in vivo) [1]: 1014.1 µg/mL (≈ 6840 µM); IC50 trypsin proteinase (in vivo) [11]: 628.7 µg/mL (≈ 4240 µM)
C=CCc1ccc(O)c(OC)c1 [eugenol]	14.2 (13.1–15.4) µg/Larvae	14.2	478.6 (≈ 2910 µM)	201.4 (≈ 1230 µM)	97.6 (≈ 594 µM)	1460 (≈ 8890 µM)	247.2 (≈ 1510 µM)		IC50 elastase (in vitro) [2]: 165.7 µg/mL (≈ 1010 µM); LD50 [3]: 14.2 µg/larva; IC50 trypsin proteinase (in vivo) [11]: 612.8 µg/mL (≈ 3730 µM); IC50 elastase (in vivo) [6]: 346.8 µg/mL (≈ 2110 µM); IC50 cysteine protease (in vivo) [12]: 453.1 µg/mL (≈ 2760 µM); IC50 cysteine protease (in vitro) [13]: 294.4 µg/mL (≈ 1790 µM)
